Paper PMC8863579, “Effects of pharmacological inhibition of the sodium‐dependent phosphate cotransporter 2b (NPT2b) on intestinal phosphate absorption in mouse and rat models” (Pharmacology Research & Perspectives, 2022)

Legend:
[1] = target: T1, mouse NPT2b (Mus musculus, UniProt Q9DBP0); assay: 33P-phosphate uptake in CHO cells expressing mouse NPT2b; format: cell-based; details: geometric mean; 2.5 µM phosphate, 60 min, room temperature
T1 construct: Full-Length cDNA Cloning and Generation of Cell Lines Over-Expressing Human, Mouse, and Rat NPT2b; host or cells: CHO-K1 / T-REx CHO, pcDNA5/TO, tetracycline-induced
T1 sequence (Q9DBP0 1-697): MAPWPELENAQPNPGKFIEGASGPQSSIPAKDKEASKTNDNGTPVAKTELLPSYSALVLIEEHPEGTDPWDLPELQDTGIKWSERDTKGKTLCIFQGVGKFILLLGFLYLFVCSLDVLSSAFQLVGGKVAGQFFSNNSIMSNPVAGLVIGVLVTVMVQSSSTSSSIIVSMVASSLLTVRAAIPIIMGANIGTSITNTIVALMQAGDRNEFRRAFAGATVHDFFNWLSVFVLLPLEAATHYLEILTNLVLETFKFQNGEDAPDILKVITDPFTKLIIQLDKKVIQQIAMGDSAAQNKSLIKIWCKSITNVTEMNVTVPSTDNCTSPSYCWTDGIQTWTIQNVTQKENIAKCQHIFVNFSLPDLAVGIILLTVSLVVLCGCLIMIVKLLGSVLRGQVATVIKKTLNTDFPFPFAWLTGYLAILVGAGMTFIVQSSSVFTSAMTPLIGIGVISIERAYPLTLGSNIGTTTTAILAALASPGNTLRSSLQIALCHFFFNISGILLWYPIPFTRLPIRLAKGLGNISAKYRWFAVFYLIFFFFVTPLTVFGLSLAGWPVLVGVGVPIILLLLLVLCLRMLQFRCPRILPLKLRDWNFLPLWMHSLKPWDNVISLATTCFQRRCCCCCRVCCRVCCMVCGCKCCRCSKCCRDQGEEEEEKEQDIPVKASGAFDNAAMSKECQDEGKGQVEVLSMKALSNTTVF
Protocol: (§1) T‐Rex™ Chinese Hamster Ovary cells (CHO; Thermo Fisher Scientific) stably expressing human, mouse, or rat NPT2b under a tetracycline‐inducible promoter were generated using standard cDNA transfection and clone selection procedures (see Supporting Information). Cells were plated in 96‐well CytoStar‐T® scintillating microplates and were incubated overnight in growth media plus 100 ng/ml of tetracycline to induce expression of NPT2b. The next day, cells were washed 3 times with 200 µl assay buffer (137 mM NaCl, 5.4 mM KCl, 2.8 mM CaCl2, 1.2 mM MgSO4, and 14 mM Tris‐HCl buffer, pH 7.5). LY3358966 serially diluted 1‐to‐3 in DMSO was added to cells with assay buffer. An equal volume of H3 ^33PO4 (PerkinElmer) in assay buffer supplemented with 5 µM potassium phosphate was then added to initiate radiolabeled phosphate (^33P‐phosphate) uptake. The final phosphate concentration was 2.5 µM and the final DMSO concentration was 1%. Following a 60‐min incubation at room temperature, an equal volume of assay buffer containing 400 µM phloretin was added to stop ^33P‐phosphate uptake. The plate was immediately read on a Wallac MicroBeta Trilux liquid scintillation counter. Percent inhibition at all concentrations tested was calculated, and IC50 values were then determined using a 4‐parameter logistic curve fitting equation.
(§2) The vendors for target cDNA are listed in supplemental Table 1. […]

[2] = target: T2, rat NPT2b (Rattus norvegicus, UniProt Q9JJ09); assay: 33P-phosphate uptake in CHO cells expressing rat NPT2b; format: cell-based; details: geometric mean; 2.5 µM phosphate, 60 min, room temperature
T2 construct: Full-Length cDNA Cloning and Generation of Cell Lines Over-Expressing Human, Mouse, and Rat NPT2b; host or cells: CHO-K1 / T-REx CHO, pcDNA5/TO, tetracycline-induced
T2 sequence (Q9JJ09 1-695): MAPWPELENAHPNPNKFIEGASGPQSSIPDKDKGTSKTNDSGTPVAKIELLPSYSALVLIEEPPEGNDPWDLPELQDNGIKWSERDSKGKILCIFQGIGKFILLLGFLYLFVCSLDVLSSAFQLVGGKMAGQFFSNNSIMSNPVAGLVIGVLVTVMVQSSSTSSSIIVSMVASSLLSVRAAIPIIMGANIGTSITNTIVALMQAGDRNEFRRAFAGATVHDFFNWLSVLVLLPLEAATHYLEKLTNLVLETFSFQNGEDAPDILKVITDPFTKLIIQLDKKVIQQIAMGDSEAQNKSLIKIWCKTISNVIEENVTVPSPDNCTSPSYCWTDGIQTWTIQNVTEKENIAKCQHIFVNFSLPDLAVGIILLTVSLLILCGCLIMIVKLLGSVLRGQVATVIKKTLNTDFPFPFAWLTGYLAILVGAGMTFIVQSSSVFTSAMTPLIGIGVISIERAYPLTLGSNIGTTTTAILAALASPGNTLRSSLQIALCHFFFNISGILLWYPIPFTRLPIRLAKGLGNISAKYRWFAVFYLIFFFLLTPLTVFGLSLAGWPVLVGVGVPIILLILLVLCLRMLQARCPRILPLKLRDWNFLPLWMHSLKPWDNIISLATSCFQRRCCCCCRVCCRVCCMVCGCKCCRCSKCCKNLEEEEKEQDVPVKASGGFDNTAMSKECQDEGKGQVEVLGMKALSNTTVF
Protocol: as §1, §2

[3] = Unbound fraction in plasma by equilibrium dialysis; format: in vitro ADME; details: mouse plasma
Protocol: Male CD‐1 male mice were orally dosed with 1, 3, or 10 mg/kg API of LY3358966 SDD dissolved in water or were IV dosed with 1 mg/kg LY3358966 formulated in 25% dimethylacetamide, 15% ethanol, 10% propylene glycol, 25% 2‐pyrrolidone, and 25% water. Each dose group contained six animals. Three animals were bled at 0.25, 0.5, 1, 2, 4, 8, 12, and 24 h, with each animal being bled at alternate time points. Plasma drug levels were determined by HPLC/MS. The unbound fraction of LY3358966 in plasma was determined with equilibrium dialysis and LC‐MS/MS.

[4] = Solubility at stomach pH; format: physicochemical; details: at the pH of the stomach

## CC1(C)CN(C(=O)NCCCCO)CCN1Cc1cccc(C(=O)Nc2sc3c(c2C(=O)Nc2cc(F)c(CCc4ccc(C(=O)O)cc4)c(F)c2)CCCC3)c1 [LY3358966, 4‐[2‐[2,6‐difluoro‐4‐[[2‐[[3‐[[4‐(4‐hydroxybutylcarbamoyl)‐2,2‐dimethyl‐piperazin‐1‐yl]methyl]benzoyl]amino]‐4,5,6,7‐tetrahydrobenzothiophene‐3‐carbonyl]amino]phenyl]ethyl]benzoic acid]
[1]
  IC50: 43.9 nM
[2]
  IC50: 26.8 nM
[3]
  fraction unbound: 0.005
[4]
  solubility: minimal solubility
